Source: patent US10342796B2, “Acrylanilide derivative, preparation method, and applications thereof in pharmacy” (Ancureall Pharmaceutical (Shanghai) Co., Ltd., priority 2015, dated 2019)
Read-outs that look alike come from different tables or passages of the source.

Assays:
[1] = system: SW48 (EGFR G719S positive); assay: Growth inhibition GI50 in vitro (CCK8/MTT, 72 h); assay type: cell-based; details: Homo sapiens
Method: PC-9ER is an acquired Erlotinib resistance cell line of PC-9 cells developed by the investor. […] The four cell lines above were cultured with 1×RPMI1640 complete medium (supplement with 10% FBS). Human colon cancer cell line SW48 (EGFR G719S positive, ATCC). was cultured with L15 complete medium (10% FB S).
The suspension cells were collected by centrifugation. The supernatant was discard and the cell pellet was resuspended and counted. Different cell concentrations (5˜10×10^4 cells/mL) were prepared according to the growth cycle of each cell line and then seeded on a 96-well plate (Corning), 100 μL/well. The cells were incubated over night at 37° C., 5% CO2. The compounds were added to the cells on the second day with 2 wells in parallel. The final concentration of organic solvent shall not exceed 1%. The cells were continually incubated for 72 h, and then subjected to MTT assay.
The present compounds and the reference compounds were dissolved with DMSO (Sigma), respectively. […] The storage concentration of compounds was 10 mM and kept at −20° C. They were diluted by 2 times or 10 times with serial dilution before using.
Dojindo CCK8 reagent kit was used as MTT assay. […] FC meter was used as microplate reader.
Adherent cell culture medium was discard and immediately replaced with fresh prepared medium which contains 10% CCK8 reagent (100 μL/well). For the suspension cells, CCK8 was directly added to 10% of the final concentration. The cells were continually incubated for 1˜4 h. When the color of control wells turned to dark yellow, the absorption value was measured at OD450 nm. The cell growth rate was calculated according to the following formula: cell growth rate (%)=100*(T−T0)/(C−T0), T=optical density of drug treatment cell well—optical density of blank control well; T0=optical density of cell well before drug treatment—optical density of blank control well; C=optical density of cell well of solvent control group—optical density of blank control well. […] The experiment was independently repeated 1˜3 times, and subject to biological statistical analysis.
Each compound started at 1000 nM as an initial concentration and was diluted by […] with serial dilution to 0.03 nM.

[2] = system: SNU1040 (HER2 V777M positive); assay: Growth inhibition GI50 in vitro (CCK8/MTT, 72 h); assay type: cell-based; details: Homo sapiens, read-out: GI50 SNU-1040 (HER2 V777M)
[3] = Table 16, 1000 nM to 0.03 nM serial dilution

Compound | GI50 [2, 3] | GI50 ([1]; SW48, Table 15, 1000 nM to 0.03 nM serial dilution, read-out: GI50 SW48 (EGFR G719S)) | GI50 ([1]; SW48, read-out: GI50 SW48 (EGFR G719S)) | GI50 [2]
C=CC(=O)Nc1cc(Nc2nccc(-c3cn(C)c4ccccc34)n2)c(OC)cc1N(C)CCN(C)C [AZD9291, reference compound] |  |  | 0.156 µM | 0.156 µM
C=CC(=O)Nc1cc(Nc2nccc(-n3ccc4c(OC)cccc43)n2)c(OC)cc1N(C)CCN(C)C [Compound 99, N-(5-(4-(4-methoxyl-1H-indol-1-yl)-pyrimidin-2-ylamino)-2-(2-(dimethylamino-ethyl)-methyl-amino)-4-methoxyl-phenyl)-acrylamide] | 0.0195 µM |  |  | 

The next lines start with results.

GI50 [2, 3] | GI50 ([1]; SW48, Table 15, 1000 nM to 0.03 nM serial dilution, read-out: GI50 SW48 (EGFR G719S)) | Compound | GI50 ([1]; SW48, read-out: GI50 SW48 (EGFR G719S)) | GI50 [2]
0.0162 µM |  | C=CC(=O)Nc1cc(Nc2cc(Nc3cc(OC)c(Cl)cc3Cl)ncn2)c(OC)cc1N(C)CCN(C)C [Compound 136, N-(5-(6-(2,4-dichloro-5-methoxyl-phenylamino)-pyrimidin-4-ylamino)-2-((2-dimethylamino-ethyl)-methyl-amino)-4-methoxyl-phenyl)-acrylamide] |  | 
0.0143 µM |  | C=CC(=O)Nc1cc(Nc2nccc(-n3ccc4c(OCCOC)cccc43)n2)c(OC)cc1N(C)CCN(C)C [Compound 205, N-(5-(4-(4-(2-methoxyl-ethoxyl)-1H-indol-1-yl)-pyrimidin-2-ylamino)-2-(2-(dimethylamino-ethyl)-methyl-amino)-4-methoxyl-phenyl)-acrylamide] |  | 
0.00542 µM | 0.00423 µM | C=CC(=O)Nc1cc(Nc2cc(Nc3cc(F)c(OC)c(Cl)c3)ncn2)c(OC)cc1N(C)CCN(C)C [Compound 236, N-(5-(6-(3-chloro-5-fluoro-4-methoxyphenylamino)-pyrimidin-4-yl-amino)-2-((2-dimethylamino-ethyl)-methyl-amino)-4-methoxyl-phenyl)-acrylamide] |  | 
